Where two headings read alike, the source gives them in different places.
What was measured:
Assay type in all cases: cell-based
SUM159 = experiment: In vitro cell viability assay (Cell Titer Glo), breast cancer SUM159; details: 72 h
Experimental: (§1) Breast cancer SUM159 was obtained from Asterand and grown according to supplier's recommendation. All other cell lines were obtained from ATCC and cultured in standard cell culture conditions with complete cell culture medium containing 10% FBS.
(§2) Cancer cells were seeded into optically clear tissue culture-treated black 96-well plates (for adherent cells) or low-attachment 96-well plates (for cancer stem cells) at 2,000-5000 cells/50 μL of media per well. The cells were treated with Wnt inhibitors at 0.1 to 10 μM for 72 h. Cell viability was measured by the Cell Titer Glo Assay from Promega.
(§3) Table 5 below illustrates the effects of the disclosed compounds on cell viability of breast cancer cell lines.

2LMP = experiment: In vitro cell viability assay (Cell Titer Glo), breast cancer 2LMP; details: 72 h
Experimental: as §1, §2, §3

S2VP10 = experiment: In vitro cell viability assay (Cell Titer Glo), pancreatic cancer S2VP10; details: 72 h
Experimental: as §1, §2

Suit-2 = experiment: In vitro cell viability assay (Cell Titer Glo), pancreatic cancer Suit-2; details: 72 h
Experimental: as §1, §2

MDA-MB-468 = experiment: In vitro cell viability assay (Cell Titer Glo), breast cancer MDA-MB-468; details: Homo sapiens, 72 h
Experimental: as §1, §2, §3

HT-29 = experiment: In vitro cell viability assay (Cell Titer Glo), colorectal cancer HT-29; details: Homo sapiens, 72 h
Experimental: as §1, §2
(§4) Table 4 below illustrates the effects of the disclosed compounds on cell viability of colorectal cancer cell lines.

PANC-1 = experiment: In vitro cell viability assay (Cell Titer Glo), pancreatic cancer PANC-1; details: Homo sapiens, 72 h
Experimental: as §1, §2

HCT116 = experiment: In vitro cell viability assay (Cell Titer Glo), colorectal cancer HCT116; details: Homo sapiens, HCT-116, 72 h
Experimental: as §1, §2, §4

Wnt signaling = Wnt signaling reporter assay (Super8XTOPFlash luciferase) in LRP6-expressing HEK293 cells; details: Homo sapiens, 24 h treatment, luciferase normalized to β-galactosidase, read-out: IC50 (effects on Wnt signaling)
Experimental: HEK293 cells were plated into 24-well plates. After overnight culture, the cells were transiently transfected with 0.06 μg of the Super8XTOPFlash luciferase construct, 0.06 μg of β-galactosidase-expressing vector, and 0.06 μg of pCS-Myc-hLRP6 or control vector. After 24 h incubation, cells were treated with each individual compound in triplicate for 24 h. Cells were then lysed, and the luciferase and β-galactosidase activities were determined by the luciferase assay system (Promega) and β-galactosidase assay system (Promega), respectively. The luciferase activity was normalized to the β-galactosidase activity.
Table 2 below illustrates the effects of the disclosed compounds on Wnt signaling in LRP6-expressing HEK293 cells.

HCC1143 = experiment: In vitro cell viability assay (Cell Titer Glo), breast cancer HCC1143; details: Homo sapiens, 72 h
Experimental: as §1, §2, §3

L3.6pl = experiment: In vitro cell viability assay (Cell Titer Glo), pancreatic cancer L3.6pl; details: Homo sapiens, 72 h
Experimental: as §1, §2

[1] = SUM159, CSC conditions, read-out: Cell viability (IC50) SUM159 CSC
[2] = SUM159, adherent, read-out: Cell viability (IC50) SUM159 Adherent
[3] = CSC conditions, read-out: Cell viability (IC50) 2LMP CSC
[4] = adherent, read-out: Cell viability (IC50) 2LMP Adherent
[5] = S2VP10, CSC enriching serum free medium, non-adherent plates, read-out: Cell viability (IC50) S2VP10 CSC
[6] = S2VP10, adherent, complete medium 10% FBS, read-out: Cell viability (IC50) S2VP10 Adherent
[7] = Suit-2, CSC enriching serum free medium, non-adherent plates, read-out: Cell viability (IC50) Suit-2 CSC
[8] = Suit-2, adherent, complete medium 10% FBS, read-out: Cell viability (IC50) Suit-2 Adherent
[9] = MDA-MB-468, CSC conditions, read-out: Cell viability (IC50) MDA-MB-468 CSC
[10] = MDA-MB-468, adherent, read-out: Cell viability (IC50) MDA-MB-468 Adherent
[11] = PANC-1, adherent, complete medium 10% FBS, read-out: Cell viability (IC50) PANC-1 Adherent
[12] = PANC-1, cancer stem cell (CSC) enriching serum free medium, non-adherent plates, read-out: Cell viability (IC50) PANC-1 CSC
[13] = HCC1143, CSC conditions, read-out: Cell viability (IC50) HCC1143 CSC
[14] = HCC1143, adherent, read-out: Cell viability (IC50) HCC1143 Adherent
[15] = CSC enriching serum free medium, non-adherent plates, read-out: Cell viability (IC50) L3.6pl CSC

FC(F)(F)Oc1ccc(-c2nc3cc(Cl)c(Cl)cc3[nH]2)cc1 [Compound 6, 5,6-Dichloro-2-(4-(trifluoromethoxy)phenyl)-1H-benzo[d]imidazole]
IC50 (SUM159; [1]): 1170 nM
IC50 (SUM159; [2]): 1670 nM
IC50 (2LMP; [3]): 2900 nM
IC50 (2LMP; [4]): 3840 nM
IC50 (S2VP10; [5]): 590 nM
IC50 (S2VP10; [6]): 2570 nM
IC50 (Suit-2; [7]): 560 nM
IC50 (Suit-2; [8]): 2120 nM
IC50 (MDA-MB-468; [9]): 330 nM
IC50 (MDA-MB-468; [10]): 3830 nM
IC50 (HT-29; HT-29, CSC conditions, read-out: Cell viability (IC50) HT-29 CSC): 860 nM
IC50 (HT-29; HT-29, adherent, read-out: Cell viability (IC50) HT-29 Adherent): 4380 nM
IC50 (PANC-1; [11]): 3440 nM
IC50 (PANC-1; [12]): 570 nM
IC50 (HCT116; HCT116, CSC conditions, read-out: Cell viability (IC50) HCT116 CSC): 1610 nM
IC50 (HCT116; HCT116, adherent, read-out: Cell viability (IC50) HCT116 Adherent): 3840 nM
IC50 (Wnt signaling): 190 nM
IC50 (HCC1143; [13]): 1300 nM
IC50 (HCC1143; [14]): 3180 nM
IC50 (L3.6pl; [15]): 930 nM

FC(F)(F)c1ccc(-c2nc3c(Cl)cc(Cl)cc3[nH]2)cc1 [Compound 7, 4,6-Dichloro-2-(4-(trifluoromethyl)phenyl)-1H-benzo[d]imidazole]
IC50 (SUM159; [1]): 900 nM
IC50 (SUM159; [2]): 1130 nM
IC50 (2LMP; [3]): 13000 nM
IC50 (2LMP; [4]): 16800 nM
IC50 (S2VP10; [5]): 770 nM
IC50 (S2VP10; [6]): 3880 nM
IC50 (Suit-2; [7]): 610 nM
IC50 (Suit-2; [8]): 5210 nM
IC50 (MDA-MB-468; [9]): 160 nM
IC50 (MDA-MB-468; [10]): 1290 nM
IC50 (PANC-1; [11]): 4470 nM
IC50 (PANC-1; [12]): 300 nM
IC50 (Wnt signaling): 6010 nM
IC50 (HCC1143; [13]): 700 nM
IC50 (HCC1143; [14]): 4500 nM
IC50 (L3.6pl; [15]): 660 nM
IC50 (L3.6pl; adherent, complete medium 10% FBS, read-out: Cell viability (IC50) L3.6pl Adherent): 570 nM

From patent US20170210741A1, “Benzimidazole Compounds, Use As Inhibitors of WNT Signaling Pathway in Cancers, and Methods for Preparation Thereof” (Southern Research Institute, priority 2016, published 2017)
